Data reported in US6492328B2, “Novispirins: antimicrobial peptides” (priority 2000, dated 2002).
Values after ≈ are worked out from the molar mass of the structure shown. Read-outs that look alike come from different tables or passages of the source. Where no end group is shown, it is not given here.

Columns and labels:
S. maltophilia 42CK = test: Novispirins vs S. maltophilia (Table 5); format: cell-based, Stenotrophomonas maltophilia; design: unit not given here; conditions: strain 42CK
Protocol: (§1) Microorganisms used in this study included 13 different Pseudomonas aeruginosa strains. The AML-654 and LZ-1 strains are recent clinical isolates from the UCLA Clinical Microbiology laboratory. Nine strains (5 mucoid, 4 nonmucoid) were recent CF isolates provided by Dr. Lisa Saiman. All of the P. aeruginosa strains except PAO-1 strain were resistant to multiple conventional antibiotics, and all 9 CF isolates were resistant to 250 μg/ml of tobramycin. We have also tested 5 strains each of Stenotrophomonas maltophilia and Burkholderia cepacia from CF patients (also provided by Dr. Lisa Saiman), two strains of Escherichia coli (ML-35p and DH-5a), and single strains of Staphylococcus aureus[MRSA (methicillin-resistant S. aureus)] and C. albicans.

S. maltophilia 47CG = test: Novispirins vs S. maltophilia (Table 5); format: cell-based, Stenotrophomonas maltophilia; design: unit not given here; conditions: strain 47CG
Protocol: as §1

S. maltophilia 18CP = test: Novispirins vs S. maltophilia (Table 5); format: cell-based, Stenotrophomonas maltophilia; design: unit not given here; conditions: strain 18CP
Protocol: as §1

S. maltophilia 51Cl = test: Novispirins vs S. maltophilia (Table 5); format: cell-based, Stenotrophomonas maltophilia; design: unit not given here; conditions: strain 51Cl
Protocol: as §1

S. maltophilia 36CN = test: Novispirins vs S. maltophilia (Table 5); format: cell-based, Stenotrophomonas maltophilia; design: unit not given here; conditions: strain 36CN
Protocol: as §1

E. coli ML 35P [1] = format: cell-based, Escherichia coli; conditions: mean ± SEM, n = 3
Protocol: Antimicrobial activity. Several different methods were used to examine the antimicrobial properties of novispirins, including: a) two-stage radial diffusion assays; b) colony counting assays; and c) standard microbroth dilution assays.
Antimicrobial activity was tested in media with low, normal or high salinity. In radial diffusion assays, this was accomplished by using a low salt “basic medium” containing 0.3 mg of trypticase soy broth powder/ml of 10 mM sodium phosphate buffer, pH 7.4. Media with “normal” or “high” salinity were prepared by supplementing the basic medium with 100 mM NaCl to obtain media with normal salinity, or with 175-200 mM NaCl to obtain high salt media. Retention of activity against P. aeruginosa in high salt media is important because airway fluids from cystic fibrosis patients are reported to show hypersalinity, and other sites—including skin surfaces surfaces and the urinary bladder—may have locally high salt concentrations.
The relative activities of ovispirin and the novispirins against two organisms, E. coli and a multi-resistant strain of P. aeruginosa, are shown in FIG. 1. The MICs were obtained by radial diffusion assays performed under low, normal, and high salt conditions (which are denoted along the X-axis as 0, 100 and 200 mM NaCl, respectively).
Table 1 compares the activity of novispirins against these Gram-negative bacteria with its activity against Listeria monocytogenes, Staphylococcus aureus and C. albicans. […] Note that novispirins show activity against these Gram-positive bacteria when tested in physiological (100 mM NaCl) salt concentrations, and also that Novispirin G10 is quite active against C. albicans. Although neither ovispirin nor novispirins retained activity against C. albicans or the Gram positives under very high salt conditions (200 mM NaCl), they remained active against the Gram-negatives under these conditions. Consequently, even if the airways' NaCl concentrations are exceptionally high in CF patients, this factor will not impair the ability of ovispirin or novispirins to kill P. aeruginosa.

P. aeruginosa = test: Two stage radial diffusion assay with 10 mM HEPES, G10 variants (Table 8); format: cell-based; conditions: mean ± SEM, n = 3, in µg/mL
From the text: (§2) Amidation (—NH2) of the carboxy terminus in some of the novispirin G10 variants was designed to increase overall positive charge. The sequences of these peptides and their net charge is shown below in Table 7. The fractional (and pH dependent) charge on histidine12 was ignored in this calculation.
(§3) In Table 8, MIC signifies minimal inhibitory concentration, as determined by two stage radial diffusion assays. […] Shaded boxes show results that represent a significant improvement of activity (p<0.01 by t-test), relative to novispirin G10. […] None of the above G10 novispirin derivatives caused any hemolysis of human red blood cells, even when tested at 80 μg/ml. It is likely that other cationic amino acids (e.g., lysine, ornithine, etc) could also be used in position 12 to achieve better activity in the presence of calcium and magnesium ions.

S. aureus = test: as above; format: cell-based; conditions: +1 mM Ca; mean ± SEM, n = 3; in µg/mL
From the text: as §2, §3

E. coli = test: as above; format: cell-based; conditions: mean ± SEM, n = 3, in µg/mL
From the text: as §2, §3

K. pneumoniae = test: as above; format: cell-based; conditions: mean ± SEM, n = 3, in µg/mL
From the text: as §2, §3

P. aeruginosa MR 3007 = conditions: underlay gel 60% RPMI-1640
From the text: (§4) Effect of serum. […] Because serum can be present in an inflammatory focus or exudate, the ability to function in the presence of serum would be a desirable property.
(§5) In these experiments, the underlay gel contained 60% RPMI-1640, ±2.5 or 20% normal human serum (NHS). The remainder of the solution was phosphate-buffered saline

E. coli ML 35P [2] = conditions: underlay gel 60% RPMI-1640
From the text: as §4, §5

[3] = Very high salinity (+200 mM NaCl)

Row | Molecule | activity vs S. maltophilia (S. maltophilia 42CK; +100 mM NaCl) | activity vs S. maltophilia (S. maltophilia 42CK; +175 mM NaCl) | activity vs S. maltophilia (S. maltophilia 42CK; LOW SALT CONDITIONS) | activity vs S. maltophilia (S. maltophilia 47CG; +100 mM NaCl) | activity vs S. maltophilia (S. maltophilia 47CG; +175 mM NaCl) | activity vs S. maltophilia (S. maltophilia 47CG; LOW SALT CONDITIONS) | activity vs S. maltophilia (S. maltophilia 18CP; +100 mM NaCl) | activity vs S. maltophilia (S. maltophilia 18CP; +175 mM NaCl) | activity vs S. maltophilia (S. maltophilia 18CP; LOW SALT CONDITIONS) | activity vs S. maltophilia (S. maltophilia 51Cl; +100 mM NaCl) | activity vs S. maltophilia (S. maltophilia 51Cl; +175 mM NaCl) | activity vs S. maltophilia (S. maltophilia 51Cl; LOW SALT CONDITIONS) | activity vs S. maltophilia (S. maltophilia 36CN; +100 mM NaCl) | activity vs S. maltophilia (S. maltophilia 36CN; +175 mM NaCl) | activity vs S. maltophilia (S. maltophilia 36CN; LOW SALT CONDITIONS) | further results
1 | CC(C)C[C@H](NC(=O)[C@H](CCCNC(=N)N)NC(=O)CNC(=O)CNC(=O)[C@@H](N)CCCNC(=N)N)C(=O)N[C@H]1CSSC[C@@H](C(=O)N[C@H](C(=O)NCC(=O)N[C@@H](CCCNC(=N)N)C(N)=O)C(C)C)NC(=O)[C@H](C(C)C)NC(=O)[C@@H]2CSSC[C@H](NC(=O)[C@H](Cc3ccc(O)cc3)NC1=O)C(=O)N[C@@H](CCCNC(=N)N)C(=O)N[C@@H](CCCNC(=N)N)C(=O)N[C@@H](CCCNC(=N)N)C(=O)N[C@@H](Cc1ccccc1)C(=O)N2 [Protegrin PG-1, reference compound] | 0.50 | 0.79 | 0.32 | 0.53 | 0.74 | 0.09 | 0.58 | 0.70 | 0.52 | 0.92 | 1.08 | 0.42 | 0.46 | 0.57 | 0.27 | –
2 | GLLRRLRKKIGEIFKKYG [PGG, reference compound] | 2.67 | 7.10 | 1.51 | 1.08 | 1.64 | 0.73 | 1.63 | 2.34 | 0.86 | 2.20 | 2.85 | 1.31 | 1.05 | 1.11 | 1.10 | –
3 | Polymyxin B [reference compound] | 0.02 | 0.01 | 0.05 | 0.08 | 0.05 | 0.16 | 0.04 | 0.002 | 0.04 | 0.04 | 0.05 | 0.02 | 0.02 | 0.02 | 0.06 | –
4 | KNLRRIGRKIIHIIKKYG [G7 Novispirin, K N L R R I G R K I I H I I K K Y G] | 0.92 | 2.85 | 0.42 | 0.39 | 0.29 | 0.25 | 0.38 | 0.70 | 0.61 | 0.89 | 1.94 | 0.54 | 0.31 | 0.29 | 0.17 | MIC (E. coli ML 35P [1]; Low Salt (+0 mM NaCl)): 0.2 ± 0.0 µg/mL; MIC (E. coli ML 35P [1]; Normal salinity (+100 mM NaCl)): 0.2 ± 0.0 µg/mL; MIC (E. coli ML 35P [1]; [3]): 1.5 ± 0.4 µg/mL
5 | K N L R R I I R K G I H I I K K Y G-CONH2 (KNLRRIIRKGIHIIKKYG-NH2) [Novispirin G10 amide] | – | – | – | – | – | – | – | – | – | – | – | – | – | – | – | MIC (P. aeruginosa; +1 mM Ca): 83.5 ± 6.4; MIC (P. aeruginosa; +1 mM Mg): >250; MIC (P. aeruginosa; No Ca/Mg): 0.12 ± 0.01; MIC (S. aureus): >79; MIC (E. coli; +1 mM Ca): 7.26 ± 0.02; MIC (E. coli; +1 mM Mg): 17.2 ± 3.9; MIC (E. coli; No Ca/Mg): 0.06 ± 0.00; MIC (K. pneumoniae; +1 mM Ca): 83.5 ± 6.4; MIC (K. pneumoniae; +1 mM Mg): >250; MIC (K. pneumoniae; No Ca/Mg): 0.12 ± 0.01
6 | CC[C@H](C)[C@H](NC(=O)[C@H](CCCCN)NC(=O)[C@H](CCC(=O)O)NC(=O)[C@H](CCCCN)NC(=O)[C@H](CO)NC(=O)[C@H](CCCCN)NC(=O)[C@H](CCCNC(=N)N)NC(=O)[C@H](Cc1ccccc1)NC(=O)[C@H](Cc1ccccc1)NC(=O)[C@H](CC(=O)O)NC(=O)CNC(=O)[C@H](CC(C)C)NC(=O)[C@@H](N)CC(C)C)C(=O)NCC(=O)N[C@@H](CCCCN)C(=O)N[C@@H](CCC(=O)O)C(=O)N[C@@H](Cc1ccccc1)C(=O)N[C@@H](CCCCN)C(=O)N[C@@H](CCCNC(=N)N)C(=O)N[C@H](C(=O)N[C@H](C(=O)N[C@@H](CCC(N)=O)C(=O)N[C@@H](CCCNC(=N)N)C(=O)N[C@H](C(=O)N[C@@H](CCCCN)C(=O)N[C@@H](CC(=O)O)C(=O)N[C@@H](Cc1ccccc1)C(=O)N[C@@H](CC(C)C)C(=O)N[C@@H](CCCNC(=N)N)C(=O)N[C@@H](CC(N)=O)C(=O)N[C@@H](CC(C)C)C(=O)N[C@H](C(=O)N1CCC[C@H]1C(=O)N[C@@H](CCCNC(=N)N)C(=O)N[C@H](C(=O)N[C@@H](CCC(=O)O)C(=O)N[C@@H](CO)C(=O)O)[C@@H](C)O)C(C)C)[C@@H](C)CC)C(C)C)[C@@H](C)CC [LL-37, reference compound] | – | – | – | – | – | – | – | – | – | – | – | – | – | – | – | MIC (P. aeruginosa MR 3007; 0% NHS): 12.7 µg/mL (≈ 2.83 µM); MIC (P. aeruginosa MR 3007; 2.5% NHS): 23.7 µg/mL (≈ 5.27 µM); MIC (P. aeruginosa MR 3007; 20% NHS): 141 µg/mL (≈ 31.4 µM); MIC (E. coli ML 35P [2]; 0% NHS): 5.8 µg/mL (≈ 1.29 µM); MIC (E. coli ML 35P [2]; 2.5% NHS): 21.0 µg/mL (≈ 4.67 µM)
7 | KNLRRITRKIIHIIKKYG [T7 Novispirin, K N L R R I T R K I I H I I K K Y G] | 0.73 | 1.92 | 0.56 | 0.47 | 0.48 | 0.18 | 0.58 | 0.62 | 0.74 | 1.75 | 2.74 | 0.88 | 0.32 | 0.52 | 0.21 | MIC (E. coli ML 35P [1]; Low Salt (+0 mM NaCl)): 0.3 ± 0.1 µg/mL; MIC (E. coli ML 35P [1]; Normal salinity (+100 mM NaCl)): 0.2 ± 0.1 µg/mL; MIC (E. coli ML 35P [1]; [3]): 1.4 ± 0.5 µg/mL
